Test results taken from PMC10745422, “Absorption, Distribution, Metabolism, and Excretion of [^14C]BS1801, a Selenium-Containing Drug Candidate, in Rats” (Molecules, 2023).

Legend:
albumin = system: albumin; set-up: method as in PMID 17363345, PMID 7945407; settings: cited from earlier work
[1] = Mass balance: excretion of radioactivity in urine and feces after a single oral dose of [^14C]BS1801; assay type: in vivo, Sprague–Dawley (SD, Rattus norvegicus) rats
Protocol: (§1) BS1801 and [^14C]BS1801 were prepared in 0.5% sodium carboxymethyl cellulose solution at a target concentration of 10 mg/mL (10 μCi/mL). The radioactivity of [^14C]BS1801 was measured using a liquid scintillation counter (LSC) (Hidex, Turku, Finland) before and after administration, and a single dose of 10 mL/kg was administered orally.
Three male and three female SD rats were housed individually in metabolic cages. Urine samples were collected from each rat at predose and 0–8, 8–24, 24–48, 48–72, 72–96, 96–120, 120–144, and 144–168 h postdose. When each urine sample was collected, the metabolic cage was flushed with a small amount of water for 0–72 h and methanol/water (50:50, v:v) for 72–168 h, and the flushing solution was added to the urine sample for the corresponding period. Fecal samples were also collected at predose and 0–24, 24–48, 48–72, 72–96, 96–120, 120–144, and 144–168 h postdose. Urine and fecal samples were weighed and recorded during each collection period. All samples were stored at −20 °C for testing.
(§2) Samples of urine (100 μL), bile (30 μL), and plasma (100 μL from the tissue distribution study) were weighed and added to 15 mL scintillation solution. Among them, urine and bile samples were duplicated, and plasma samples were in singlicate. The radioactivity was measured directly via LSC.
(§3) Approximately three times the weight of methanol/water (50:50, v:v) was added to each fecal sample and homogenized with a homogenizer (SKGZ, Shanghai Biheng, Shanghai, China). Approximately 0.2~0.3 g of the fecal homogenate was weighed in a combustion boat, and dried overnight. Blood samples (100 μL) and tissue samples (approximately 0.1 g) were weighed into burning boats. After the samples were completely dried, they were combusted using a Biological Sample Oxidizer (OTCS-11/1, Shanghai Yixing, Shanghai, China). The ^14CO2 generated was captured with 15 mL alkaline scintillation solution; then, the radioactivity was measured using LSC.

[2] = Biliary excretion of radioactivity in bile duct cannulated (BDC) rats; assay type: in vivo, Sprague–Dawley (SD, Rattus norvegicus) rats; settings: BDC SD rats, single intragastric 100 mg/kg, within 72 h
Protocol: as §1
Bile duct cannulation (BDC) was performed in 3 male and 3 female SD rats before drug administration. After the operation, the wounds were wiped with iodophor for 2 days, and painkillers were administered appropriately. The state of the rats was observed daily, and the drug was administered only when no abnormality was observed within 2 days. Bile was collected before and 0–4, 4–8, 8–24, 24–48, and 48–72 h after dosing. The weights of the bile samples were recorded, and the samples were stored at −20 °C until testing.
as §2

[3] = Tissue distribution of radioactivity after a single oral dose of [^14C]BS1801; assay type: in vivo, Long–Evans (LE, Rattus norvegicus) rats; settings: total radioactivity
Protocol: as §1
Twenty-four LE rats (12 of each sex) were used for tissue distribution studies. Three male and three female rats were sacrificed through abdominal aortic bleeding at 2, 10, 48, and 96 h after administration. Approximately 1/5 of the blood was stored frozen at −20 °C, and the remaining blood was centrifuged (3500× g, 5 min, 4 °C) to obtain plasma. The brain, heart, lung, liver, stomach wall, spleen, kidney, muscle, pigmented fat, ovary, womb, testis, bladder wall, pancreas, small intestine wall, large intestine wall, eye, pigmented skin, thymus, spinal cord, and marrow were also collected. The tissues were washed with saline, dried, and stored at −20 °C until testing.
as §2, §3

[4] = Metabolite radio-profiling and identification in pooled plasma, urine, feces and bile (UHPLC-β-RAM/UV/QE MS); assay type: in vivo, Sprague–Dawley (SD, Rattus norvegicus) rats
Protocol: Three SD rats of each sex were used to obtain plasma samples. […] All samples were stored at −20 °C for analysis.
Then, 3 mL of methanol/water (50:50, v:v) was slowly added to the pooled plasma (1 mL), followed by vortexing for 1 min and sonication for 10 min twice. Then, the upper extract and the lower precipitate were separated by centrifugation (5000 rpm, 10 min). The supernatant was transferred to another new centrifuge tube. Then, 1 mL of water was added to the precipitate, vortexed for 1 min, and sonicated for 10 min. Then, 2 mL of methanol/acetonitrile (50:50, v:v) was added to the mixture, two vortexes were performed for 1 min, and the mixture was ultrasonicated for 10 min, followed by centrifugation (5000 rpm, 10 min). The two-times supernatant extracts were combined and dried under a nitrogen stream and finally redissolved with acetonitrile/water (20:80, v:v). The recoveries of extraction and reconstitution processes were measured via LSC.
The pooled urine was vortexed and centrifuged (5000 rpm, 10 min). After centrifugation, the supernatant was dried under a nitrogen stream and then redissolved in acetonitrile/water (20:80, v:v).
The pooled fecal homogenate (1 g) was extracted by using the same method as for the plasma. The supernatant was then evaporated under a nitrogen stream and redissolved in 300 μL acetonitrile/water (20:80, v:v).
An ACQUITY UPLC BEH Pheny column (100 × 2.1 mm, 1.7 μm) with a Phenomenex KrudKatcher Ultra HPLC In-Line Filter guard column (2 µm, Depth Filter × 0.004 in ID) was used to perform metabolite radio-profiling and characterization on the Vanquish UHPLC system, which was combined with a QExactive Plus mass spectrometer (Thermo, Waltham, MA, USA) containing an electrospray ionization (ESI) source. The column temperature was 40 °C, and the flow rate was 0.45 mL/min. The mobile phases contained 5 mM ammonium acetate with 0.1% formic acid in water (A) and acetonitrile (B). […] The mass spectrometer was operated in positive (+ESI) mode with a m/z 100–1500 Da scanning range. The optimized MS parameters were as follows: sheath gas, 35 L/min; auxiliary gas, 10 L/min; capillary temperature, 320 °C; and spray voltage, 3.8 kV. Data acquisition was performed using Xcalibur 4.1 software (Thermo, Waltham, MA, USA), and data analysis was accomplished using Compound Discoverer software 3.3 SP2 (Thermo, Waltham, MA, USA).
The extracted plasma, urine, feces, and bile samples were separated via UHPLC and detected using an online/offline radioactivity detector to obtain the corresponding radioactive metabolite profiles. Due to low radioactivity of plasma, the UHPLC eluent was collected using a UHPLC fraction collector (Thermo, Waltham, MA, USA) over time (10 s/well) on Deepwell LumaPlateTM 96-well plates. After evaporation via a vacuum centrifuge concentrator, the radioactivity was determined with an offline Sense Beta detector (1 min/well, Hidex, Turku, Finland). For the urine, feces, and bile samples, the UHPLC eluent was analyzed using an online radioactivity detector β-RAM. Radioactive metabolite profiling was integrated to obtain the radio-chromatogram with Laura 6.0.5.101 software (Lablogic, Sheffield, UK). The percentage of each metabolite in urine, feces, and bile (%dose) and the ratio of metabolites in the plasma (% area under the curve, %AUC) were calculated.

human serum albumin = system: human serum albumin; set-up: method as in PMID 35149420; settings: covalent binding, unstable; cited from earlier work
[5] = SD rats, single oral 100 mg/kg, 0 to 168 h
[6] = 0–96 h pooled female SD rat urine
[7] = AUC0–72h pooled female SD rat plasma
[8] = AUC0–72h pooled male SD rat plasma

O=c1c2ccccc2[se]n1CCn1[se]c2ccccc2c1=O [BBSKE, 1,2-[bis(1,2-benzisoselenazolone-3 (2H)-ketone)]-ethane]
binding rates with albumin (albumin): high

O=c1c2ccccc2[se]n1CCCCn1[se]c2ccccc2c1=O [BS1801]
absorption in rats (inferred from urine and bile recovery) ([1]; SD rats, single oral 100 mg/kg): not well absorbed
radioactive recovery in either urine or bile ([1]; SD rats, single oral 100 mg/kg): less than 1 % of the dose
mean radioactive recovery in urine and feces ([1]; SD rats, single oral 100 mg/kg (100 μCi/kg), 0 to 168 h): 93.39%
cumulative excretion of radioactive substances in feces [1, 5]: 92.77 % of the dose
cumulative excretion of radioactive substances in urine [1, 5]: 0.62 % of the dose
mean radioactive recovery in urine and feces ([1]; SD rats, single oral 100 mg/kg, within 0–48 h): 91.57%
cumulative excretion of radioactive substances in feces ([1]; female SD rats): 93.22 % of the dose
cumulative excretion of radioactive substances in feces ([1]; male SD rats): 92.32 % of the dose
recovery of radioactivity in bile [2]: 0.58%
ratio of AUC0–96h of brain to that of plasma, rank among analyzed tissues ([3]; brain, LE rats): the lowest
ratio of tissue AUC0–96h to plasma AUC0–96h ([3]; eyes, male LE rats): 5.35
average ratio of blood AUC0–96h to plasma AUC0–96h ([3]; female LE rats): 0.45
ratio of tissue AUC0–96h to plasma AUC0–96h ([3]; large intestine, female LE rats): 16.82
ratio of tissue AUC0–96h to plasma AUC0–96h ([3]; large intestine, male LE rats): 7.48
ratio of tissue AUC0–96h to plasma AUC0–96h ([3]; liver, female LE rats): 6.59
ratio of tissue AUC0–96h to plasma AUC0–96h ([3]; liver, male LE rats): 11.80
average ratio of blood AUC0–96h to plasma AUC0–96h ([3]; male LE rats): 0.73
ratios of other tissues AUC0–96h to plasma AUC0–96h ([3]; other tissues, all rats): lower than 5.00
ratio of tissue AUC0–96h to plasma AUC0–96h ([3]; stomach, male LE rats): 10.60
amount in urine [4, 6]: not detected
amount in urine ([4]; 0–96 h pooled male SD rat urine): not detected
share of total plasma radioactivity [4, 7]: undetected
share of total plasma radioactivity [4, 8]: not detected
detection of parent drug in bile ([4]; SD rat bile): not detected
unchanged drug in rat feces ([4]; SD rat feces, male and female): more than 75.00 % of the dose
recovery of radioactivity in the supernatant after protein precipitation of pooled plasma ([4]; female SD rats): 91.23%
recovery of radioactivity in the supernatant after protein precipitation of pooled plasma ([4]; male SD rats): 105.85%
amount in feces ([4]; pooled female SD rat feces (0–48 h)): 81.89 % of the dose
amount in feces ([4]; pooled male SD rat feces (0–48 h)): 76.97 % of the dose
binding to human serum albumin (human serum albumin): rapidly and thoroughly

C[Se]c1ccccc1C(=O)NCCCCNC(=O)c1ccccc1[Se]C [M2]
share of total plasma radioactivity [4, 7]: 81.33 % of the total plasma radioactivity
share of total plasma radioactivity [4, 8]: 65.41 % of the total radioactivity

C[Se]c1ccccc1C(=O)NCCCCN [M286]
amount in urine [4, 6]: 0.20 % of the dose
amount in bile ([4]; pooled 0–48 h male SD rat bile): less than 0.1 % of the dose

O=c1c2ccccc2[se]n1-c1ccccc1 [ebselen, 2-phenyl-1,2-benzisoselenazol-3(2H)-one]
binding rates with albumin (albumin): high
